The target of test [1] is T1, PHD3 (EGLN3) (Homo sapiens, UniProt Q9H6Z9).
T1 construct: Full length EGLN3 construct plasmid with; TEV-His (N); host or cells: E. coli BL21 (DE3)
In words: MALDI-based assay EGLN3 prolyl hydroxylation of peptide. Format: biochemical. To be noted: MALDI-TOF, peptide substrate. Here is the method:
demethylation events on the peptide. The percent peak area was calculated, and the K27me2, me1,
and me0 peaks were summed to get the relative percent demethylated peptide.
MALDI-based assay for FTO and ALKBH5: To determine the enzymatic activity of FTO and
ALKBH5 recombinant proteins in the presence of L-Leu NOG 6, a previously published methods
were utilized.15, 18 Briefly,10 µM of each protein was incubated in the presence of 10 µM RNA
7.5, 150 mM KCl, 50 µM L-Leu NOG or equivalent volume of water in 10 µL aliquots. The
samples were placed on ice for 10 minutes followed by addition of 200 µM 2OG or equivalent
volume of water. After incubation at 37 °C for 30 minutes, samples were desalted with 3 µL of BT
spotted on a MALDI plate with 1uL sample and 1uL of 3-HPA matrix and monitored with Bruker
FlexControl in the reflectron negative mode and analyzed on Bruker FlexAnalysis software.
Relative inhibition was monitored via assessing percent product decrease with L-Leu NOG
MALDI-based assay for C14orf169 (NO66) and MINA: To monitor the enzymatic activity of […]
1 µL S-DHB matrix were spotted on a MALDI plate and monitored with Bruker FlexControl in
the reflectron positive mode and analyzed on Bruker FlexAnalysis software. […]
was monitored via assessing percent product decrease with L-Leu NOG samples compared to no […]
monitored following a reported method.19 To monitor the enzymatic activity of EGLN1 and 3 […]

Test [2] concerns the target T2, KDM4A-F185A (Homo sapiens, UniProt O75164, F185A).
T2 construct: human KDM4A-jmjC domain (catalytic domain of KDM4A); 6xHis (N); host or cells: E. coli BL21 (DE3)
T2 sequence (O75164 142-308 F185A limits assumed): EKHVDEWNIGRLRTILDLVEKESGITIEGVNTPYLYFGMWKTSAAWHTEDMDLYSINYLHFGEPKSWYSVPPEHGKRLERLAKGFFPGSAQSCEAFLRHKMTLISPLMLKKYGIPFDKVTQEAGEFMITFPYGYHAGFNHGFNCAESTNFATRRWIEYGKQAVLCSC
Kind of test: Coupled fluorescence end-point assay for IC50. Format: biochemical. Here is the method:
To probe the efficacy of bulky NOGs against the mutant, the inhibitory constant at half-maximal (IC50) was determined by the coupled enzymatic assay using increasing amounts of the NOG analogue at fixed concentrations of cofactor and substrate.
NADH (ACROS, cat #124530050) was added to assay buffer (50 mM HEPES pH 8, 50 µM (NH4)2Fe(SO4)2, 1 mM L-ascorbic acid, 1 mM NAD+, 200 nM FDH, and 1 µM KDM4A) in varying concentrations (0-10 µM). The experiments were performed in 384-well white Corning plates. The fluorescence intensity was measured with excitation = 340 nm and emission = 490 nm on a TECAN Infinite M1000Pro. Triplicate values were taken for each concentration.
The set up and analysis for IC50 of L-Leu NOG against KDM4A F185A enzyme was similar to that described in the coupled fluorescence assay section, but adjusted to function as an end point assay. The assay composed of an enzyme cocktail (50mM HEPES pH 8.0, 75 µM (NH4)2Fe(SO4)2, 2 mM L-ascorbic acid, 1 mM NAD+, 200 nM FDH, 3 µM wild type KDM4A or KDM4A-F185A, and varying concentration of compounds (NOGs 6, 9 and 10) and a substrate cocktail (200 µM […]
2OG and 60 µM H3K9me3 peptide). […]
IC50 measurements were performed in triplicates. The data was plotted in GraphPad Prism to the equation Y=Bottom + (Top-Bottom)/(1+10^(X-LogIC50)), where Y = % Activity, and Bottom and Top being the lower and upper most plateaus of percent activity, respectively. […]

T1 sequence (Q9H6Z9 whole entry): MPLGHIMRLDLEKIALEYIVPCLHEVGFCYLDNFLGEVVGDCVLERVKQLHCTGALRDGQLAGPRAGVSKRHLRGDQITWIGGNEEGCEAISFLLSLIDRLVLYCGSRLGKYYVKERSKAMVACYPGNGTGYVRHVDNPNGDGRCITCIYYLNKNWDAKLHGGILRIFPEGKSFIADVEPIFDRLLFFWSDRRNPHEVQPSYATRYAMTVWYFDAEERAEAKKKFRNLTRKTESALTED

For `CC(C)CC(NC(=O)C(=O)O)C(=O)O` (stereo not shown) [compound 6, N-oxalyl leucine], the “inhibition of PHD3” value in test [1] is recorded as “No inhibition”. The IC50 in test [2] (dose-dependent inhibition of F185A, 200 µM 2OG, 60 µM H3K9me3 peptide) was determined as 700 ± 100 nM; in test [2] (time-dependent inhibition of F185A, 1 hour), 700 ± 100 nM; in test [2] (time-dependent inhibition of F185A, 2 hour) it was 1200 ± 200 nM; in test [2] (time-dependent inhibition of F185A, 3 hour) it was 1500 ± 300 nM; in test [2] (time-dependent inhibition of F185A, 4 hour) it was 1800 ± 500 nM; in test [2] (time-dependent inhibition of F185A, 5 hour (text: monitored over more than 5 h)), 2200 ± 500 nM.

Usually IC50 stands for the concentration at which inhibition is half-maximal.
